Measured values: PMC4402683, “FIBT versus florbetaben and PiB: a preclinical comparison study with amyloid-PET in transgenic mice” (EJNMMI Research, 2015)

Legend:
Aβ plaques = experiment: Small animal PET imaging in APP/PS1 tg and control mice (cortex + hippocampus-to-cerebellum PET ratio); type: in vivo, mouse; conditions: for SUVRtg/SUVRctl (tg/ctl): ratio of APP/PS1 tg to control mice SUVR; for Mean PET ratio (SUVR ± SD), cortex + hippocampus to cerebellum: 36 to 45 min
Procedure: Inhalation anesthesia with isoflurane was used and the eyes of the animals were protected with dexpanthenol eye ointment. Anesthesia was initiated 15 min ahead of experiments by placing the animal in a cage ventilated with oxygen (3.5 L/min) containing 3% isoflurane. Throughout the experiments, anesthesia was maintained by adjusting the isoflurane content (0.6% to 2%) to ensure a respiratory rate in the range 80 to 100/min. For i.v. injection, we inserted a tailored catheter into the lateral tail vein. Simultaneously with a slow bolus injection of 50 to 200 μL of tracer solution, we started the PET with scan duration of 45 min in 3D list mode on a Siemens Inveon system (axial field-of-view of 12.7 cm with a bore diameter of 12 cm, approximately 1.4 mm full-width-at-half-maximum spatial resolution; Siemens Healthcare, Erlangen, Germany). After tracer injection, we flushed the catheter with 50 to 100 μL of isotonic sodium chloride solution. During the scan, a heating pad prevented hypothermia. The radioactivity in the syringe was measured immediately before and after injection with a Capintec CRC® 15R (Capintec Inc, 6 Arrow Road Ramsey, NJ, USA) dose calibrator.
Based on our experience, variance of macroscopic brain anatomy is very low across mice with the same genetic background. Therefore, the creation of a MRI template was done by manual co-registration of all MR images based on prominent brain structures and the overall cortical contour and calculation of a mean image (Pmod 3.3, Pmod Technologies, Zurich, Switzerland). Structures outside of the brain were not considered in the manual co-registration process. Two major volume-of-interests (VOIs) were defined on the MRI template, one comprising the full cortex including hippocampus, the other comprising the full cerebellum. The same VOIs were then used for reading out co-registered PET data of a mean image of the final 10 min of the scan (minute 36 to 45). The VOIs were chosen based on previous findings in a voxel-based analysis of cerebral PiB uptake and its correlation with the underlying Aβ pathology in this mouse model. PET data was normalized and corrected for decay and dead time. The images were reconstructed by means of filtered back-projection (FBP), using a ramp filter with a cutoff at the Nyquist frequency into 45 frames (45 × 60 s). The image volume consisted of 128 × 128 × 159 voxels, each of a size of 0.78 × 0.78 × 0.80 mm. The PET images were manually co-registered with the MRI template. This was done by using the wash-in phase of the tracer to identify the brain contour for alignment with the MRI template. We scaled the PET images to percentage of injected dose per cubic centimeter. We then applied these VOIs to the co-registered PET images and exported the VOI values to Microsoft Excel 2010 in order to calculate cortex + hippocampus-to-cerebellum ratios (further referred to as PET ratios).
We tested the tg/ctl ratios for significance. First, we performed a one-way ANOVA between the three groups showing significance.

Aβ deposits = experiment: Ex vivo autoradiography, cortex/cerebellum uptake ratio; type: in vivo, mouse; conditions: n ≥ 3
Procedure: In the present study, ex vivo autoradiography of [^18F]FIBT and [^18F]Florbetaben (Figure SI-1) were performed following a published procedure (Manook et al., 2012).
Figure SI-1. [^18F]FIBT and [^18F]Florbetaben autoradiography and cortex/ cerebellum uptake ratio (n≥ 3). Images of digital ex vivo autoradiography of a 12 µm thick axial section of age- and gender matched control (A and C) and APP/PS1 tg mouse brain (B and D). [^18F]FIBT (A and B), and [^18F]Florbetaben (C and D).

[1] = Lipophilicity (log Doct/PBS) by partition between 1-octanol and PBS; type: physicochemical; conditions: 1-octanol/PBS pH 7.4, mean ± SD, N = 6
Procedure: Lipophilicity of the employed compounds was determined by a conventional partition method between 1-octanol and phosphate buffered saline (PBS), pH 7.4. The 1-octanol was saturated with PBS before use. Briefly, the no-carrier-added tracers, contained in 0.2 mL PBS, were added 0.2 mL of 1-octanol in a 1.5-mL polypropylene Eppendorf vial. The vial was sealed and vigorously shaken at room temperature for 5 min. The mixture was then centrifuged at 3,000 g for 10 min. A 100 μL aliquot from each of the two phases was drawn and their radioactivity content was determined in a NaI (Tl) well-type detector. The log Doct/PBS was calculated as follows: log Doct/PBS = log (radioactivity concentration in the 1-octanol phase/radioactivity concentration in the PBS phase). The reported values represent the mean of six independent measurements.

Aβ aggregates [2] = biological target: Aβ aggregates; design: method as in PMID 24900362; conditions: versus [^3H]PiB; cited from earlier work
Aβ aggregates [3] = conditions: post mortem AD brain homogenates; cited from earlier work
[4] = Ex vivo brain uptake studies in BALB/c mice; design: species or system mouse; conditions: BALB/c mice without Aβ pathology, compared to [^18F]FIBT
Procedure: Ex vivo brain uptake studies were performed in male BALB/c mice (mean ± SD body weight: 23 ± 2 g). […] Groups of mice were killed at 5 and 30 min p.i. Radioactivity of weighted brain samples was measured in a γ-counter (Wallac 1480-011 Automatic Gamma Counter, PerkinElmer, Waltham, MA, USA). Data are expressed as percent of the injected dose per gram tissue (% I.D./g; mean ± SD, N = 5).

[5] = APP/PS1 tg mice (N = 4), 24-month-old

Log D oct/PBS [1] | logD at 5 min ([1]; read-out: Log D oct/PBS) | Initial brain uptake ([4]; 5 min p.i.) | Brain tracer retention ([4]; 30 min p.i.) | Structure (SMILES) | SUVRtg/SUVRctl (tg/ctl) (Aβ plaques) | Mean PET ratio (SUVR ± SD), cortex + hippocampus to cerebellum (Aβ plaques; [5]) | Mean PET ratio (SUVR ± SD), cortex + hippocampus to cerebellum (Aβ plaques; C57BL6/J control mice (N = 3)) | Ctx/Clb ratio (Aβ deposits; APP/PS1 tg mouse brain) | Ctx/Clb ratio (Aβ deposits; Ctl mouse brain) | Ki (Aβ aggregates [2]) [nM] | Kd (Aβ aggregates [3]) [nM]
– | – | – | – | CNc1ccc(-c2nc3ccc(O)cc3s2)cc1 [[^11C]PiB, Pittsburgh compound B] | 2.11 ± 0.24 | – | – | – | – | – | –
1.92 ± 0.06 | – | – | – | CNc1ccc(-c2cn3c(n2)sc2cc(OCC[18F])ccc23)cc1 [[^18F]FIBT, 2-(p-methylaminophenyl)-7-(2-[^18F]fluoroethoxy)imidazo[2,1-b]benzothiazole] | 1.78 ± 0.16 | 1.68 ± 0.15 | 0.95 ± 0.02 | 4.7 ± 0.3 | 1.1 ± 0.1 | 2.1 ± 0.8 | 0.7 ± 0.2
– | 1.58 ± 0.13 | lower initial uptake | higher tracer retention | CNc1ccc(/C=C/c2ccc(OCCOCCOCCF)cc2)cc1 [[^18F]florbetaben, florbetaben] | 1.50 ± 0.06 | 1.35 ± 0.06 | 0.90 ± 0.01 | 2.0 ± 0.3 | 1.3 ± 0.1 | – | 6.7 ± 0.3
